For series [1], the system named is mushroom spines of hippocampal neurons. The experiment in a line: Dendritic spine analysis in primary hippocampal neural cultures. In kind it is cell-based, mouse. Particulars: for mushroom spine loss: 30 nM for 16 hours. Here is the method: FIGS. 4A-E. NSN21778 and Hyperforin rescue synaptic nSOC and mushroom spine loss in AD hippocampal neurons. (FIG. 4A) Chemical structure of NSN21778 and Hyperforin. (FIG. 4B) Time-course of GCaMP5.3 fluorescence signal changes in the spines of wild-type, PS1KI and APPKI hippocampal neurons. The time of extracellular Ca^2+ re-addition is indicated by a black bar above the traces. 100 μM DHPG was added 50 sec prior to Ca^2+ re-addition. The results are shown for control (CON) neurons and for neurons pretreated with 300 nM NSN21778 (+NSN) or 300 nM Hyperforin (+Hyp) for 30 min as indicated. For each experimental group individual spine (grey) and average (red) fluorescence traces are shown. (FIG. 4C) The average nSOC spine peak amplitude is shown for each group of cells shown on panel B. The mean AF/Fo signals for each group and presented as mean±SE (n≥45 spines). ***, p <0.001. (FIG. 4D) Confocal images of wild-type, PS1KI and APPKI hippocampal neurons transfected with TD-Tomato and fixed at DIV15-16. The images are shown for control neurons (CON) and for neurons treated with 30 nM NSN21778 (+NSN) or 30 nM Hyperforin (+Hyp) for 16 hours prior to fixation. Scale bar is 10 μm. (FIG. 4E) The average fraction of mushroom spines for each group of cells shown on FIG. 4D is presented as mean±SE (n≥18 neurons). ***, p <0.001.
FIGS. 5A-E. TRPC6 is a molecular target for NSN21778 and Hyperforin. (FIGS. 5A-B) Time course of Fura-2 Ca^2+ signals is shown for HEK293 cells transfected with EGFP plasmid (GFP) or combination of EGFP and TRPC6 plasmids (TRPC6). Cells were incubated in ACSF media containing 2 mM Ca^2+. In experiments shown in FIG. 5B, cells were moved to modified ACSF media containing 0.1 mM Ca^2+ for 2 min and then returned to the media containing 2 mM Ca^2+ with addition of 100 μM OAG. The time of addition of 1 μM Hyperforin (Hyp) or NSN21778 (NSN) is indicated by red bars above the Fura-2 traces. For each experimental group individual spine (grey) and average (red) fluorescence traces are shown. (FIG. 5C) The average Ca^2+ influx peak is shown for experiments presented on FIGS. 5A-B as mean±SE (n≥81). (FIG. 5D) Confocal images of wild-type and PS1KI hippocampal neurons transfected with TD-Tomato and fixed at DIV15-16. The neurons were infected with lentiviruses encoding control RNAi (siCtrl), RNAi against TRPC6 (siT6) or RNAi against Orai2 (siO2). The images are shown for no drug treated neurons (CON) and for neurons treated with 30 nM NSN21778 (+NSN) or 30 nM Hyperforin (+Hyp) for 16 hours prior to fixation. Scale bar is 10 μm. No drug treated group of wild-type and PS1KI neurons is from the same experiment as shown on FIG. 2A-J. (FIG. 5E) The average fraction of mushroom spines for each group of cells shown on panel A is presented as mean±SE (n≥19 neurons). ***, p <0.001.
Dendritic Spine Analysis in Primary Hippocampal Neural Cultures. The hippocampal cultures of PS1KI, APPKI and WT mice were established from postnatal day 0-1 pups and maintained in culture as the inventors described previously [Zhang, 2010 #5733]. For assessment of synapse morphology, hippocampal cultures were transfected with TD-Tomato plasmid at DIV7 using the calcium phosphate method and fixed (4% formaldehyde, 4% sucrose in PBS, pH 7.4) at DIV15-16. A Z-stack of optical section was captured using 100× objective with a confocal microscope (Carl Zeiss Axiovert 100M with LSM510). 18-20 cultured neurons from three batches of cultures were used for quantitative analysis per genotype. Quantitative analysis for dendritic spines was performed by using NeuronStudio software package [Rodriguez, 2008 #6276]. To classify the shape of neuronal spines in culture, the inventors adapted an algorithm from published method [Rodriguez, 2008 #6276]. In classification of spine shapes the inventors used the following cutoff values: aspect ratio for thin spines (AR_thin(crio))=2.5, head to neck ratio (HNR(crit))=1.4, and head diameter (HD(crit))=0.5 μm. […]

In series [2] the test system is mushroom spines in hippocampal CA1 neurons. Description: Dendritic spine analysis in mice hippocampus after i.p. treatment. In kind it is in vivo, mouse. Particulars: i.p. 10 mg/kg for 10 weeks.

As for `CC(=O)Nc1ccc(CCNc2ncnc3ccc(N)cc23)cc1` [NSN21778, N-{4-[2-(6-Amino-quinazolin-4-ylamino)-ethyl]-phenyl}-acetamide], in series [1] (PS1KI and APPKI neurons, 30 nM for 16 hr), the mushroom spines entry is “complete rescue”. Further, the mushroom spine loss entry in series [1] (PS1KI cultures infected with control RNAi lentiviruses) is listed as “rescued mushroom spine loss”; in series [1] (PS1KI hippocampal neurons following knockdown of TRPC6 or Orai2), “failed to rescue mushroom spine loss”; in series [1] (wild-type neurons with knockdown of TRPC6 or Orai2), “failed to rescue”. For the same molecule, the “fraction of mushroom spines” value in series [1] (wild-type neurons, 30 nM for 16 hr) was “no significant effect”. Besides, the “mushroom spine deficiency in vivo” value in series [2] (PS1KIGFP and APPKIGFP mice) is “rescue of mushroom spine deficiency”. Also, the “mushroom spines in vivo” value in series [2] (WTGFP mice) was “no effect”. Also, the “toxicity in injected mice” value (i.p. 10 mg/kg 3 times per week, WTGFP, PS1KIGFP and APPKIGFP mice) is on record as “not observed any obvious toxicity”. Further, where the note is “i.p. 10 mg/kg, following 10 weeks treatment”, the body weight entry is listed as “some weight loss”.
